How the values were obtained:
[1] = system: U373 tumour cells; test: Southern blot of adenoviral replication in U373 cells after cytostatic; format: cell-based
Protocol: In order to determine the effect of Irinotecan on adenoviral replication 10^6 U373 tumour cells were plated in 10 cm^2 Petri dishes. In a first reaction 5 μM Irinotecan was added after 24 hours. After another 24 hours the cells were infected with 10 pfu/cell dl520. After incubation of 3 days without Irinotecan DNA was isolated in accordance with the procedure described in example 10.
In a parallel reaction the thus prepared U373-cells were not pre-incubated with Irinotecan. After 48 hours of cultivating the cells without Irinotecan, they were infected with 10 pfu/cell dl520 and subsequently incubated without Irinotecan for another 3 days. DNA was isolated as described above.
Subsequently 2 μg DNA were digested with restriction enzyme Kpn I and a Southern Blot analysis performed. A part of the adenoviral genome (position: 22734-24235) generated by means of PCR was used as a probe.
In order to test the effect of Trichostatin A on adenoviral replication, 10^6 U373 tumour cells were plated in 10 cm^2 Petri dishes. After 24 hours 0.25, 0.5 and 0.75 μM Trichostatin A was added. After another 24 hours the cells were infected with 10 pfu/cell dl520.
After 3 days of incubation in medium without Trichostatin DNA was isolated. Subsequently 2 μg DNA were digested with restriction enzyme Kpn I and a Southern Blot analysis performed. […]

[2] = system: Coxsackievirus-adenovirus-receptor (CAR); test: FACS analysis of CAR expression on U373 cells; format: cell-based; details: 1 μM Trichostatin
Protocol: 200,000 U373 cells were plated in 6 well plates. After 24 hours the cells were cultivated with 1 μM Trichostatin for 24 hours. After another 24 hours the cells were isolated. Subsequently, analysis of CAR expression was performed according to a standard protocol using Facs-analysis and the primary antibody anti-CAR clone RmcB from the company Upstate, and a rabbit-anti-mouse FITC as secondary antibody (company DAKO).

[3] = system: U2OS cells; test: Oncolytic assay with daunorubicine, U2OS; format: cell-based, human; details: 40 ng/ml daunorubicine
Protocol: (§1) In the practising of the oncolytic assays the following procedure was followed: 200,000 cells (HeLa and U2OS, respectively) were plated into each well of a 6 well plate. On the next day 40 ng/ml (final concentration) of daunorubicine were added. After 3 hours of incubation the cells were infected with 10 and 30 pfu dl520/cell, respectively. Subsequently, the cells were incubated in cytostatic free medium. After 3-5 days the cells were stained using crystal violet.

[4] = system: HeLa cells; test: Oncolytic assay with daunorubicine, HeLa; format: cell-based; details: 40 ng/ml daunorubicine
Protocol: as §1

## CCc1c2c(nc3ccc(OC(=O)N4CCC(N5CCCCC5)CC4)cc13)-c1cc3c(c(=O)n1C2)COC(=O)[C@]3(O)CC [Irinotecan]
[1]; 5 μM Irinotecan 24 h before 10 pfu/cell dl520, 3 days
  adenoviral replication (dl520) compared to untreated control: significantly increased

## CC(/C=C/C(=O)NO)=C\[C@@H](C)C(=O)c1ccc(N(C)C)cc1 [Trichostatin A]
[1]; 0.25, 0.5 and 0.75 μM Trichostatin A 24 h before 10 pfu/cell dl520, 3 days
  adenoviral replication (dl520) compared to untreated controls: significantly increased
[2]
  CAR-positive cells: 56.2%

## COc1cccc2c1C(=O)c1c(O)c3c(c(O)c1C2=O)C[C@@](O)(C(C)=O)C[C@@H]3O[C@H]1C[C@H](N)[C@H](O)[C@H](C)O1 [daunorubicine]
[3]
  effect on replication of dl520: induces the replication of dl520
[4]
  effect on replication of dl520: induces the replication of dl520

Source: patent publication US8586354B2, “Adenoviruses, nucleic acids that code for the same and the use of said viruses” (priority 2003, dated 2013)
